# In the supplement of paper PMC10307832:
# Assays:
# Test in all cases: relative viability (nuclei count vs DMSO), 5 days (fraction); higher = more cells survive
# [1] = compound: C[As](C)SC[C@H](NC(=O)CC[C@H](N)C(=O)O)C(=O)NCC(=O)O [Darinaparsin] + CC(C)C[C@H](NC(=O)[C@H](Cc1ccccc1)NC(=O)c1cnccn1)B(O)O [Bortezomib] (partner 0.002 µM)
# How it was run: (§1)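 Values are medians from duplicate plates. Each reflects relative viability, defined as the nuclei count of treated wells over that of vehicle wells. Lung cancer cell lines in 1536-well plates were pin-tool dosed one day after seeding with one drug alone or with a fixed anchor-drug dose plus five library-drug doses (not always all listed) in √10 steps, then fixed, stained and imaged at 4× after 5 days.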
# [2] = compound: C1CC2=C(C1)C=C(C=C2)OC3=NC(=C4C(=N3)N(C=N4)CC5=CC=C(C=C5)C6=CC=CC=C6)N[C@@H](CC7=CC=CC=C7)CO [QS11] + N=C(N)NC(=N)NCCc1ccccc1 [Phenformin] (partner 250 µM)
# How it was run: as §1
# [3] = compound: CC1=C(C=C(C=C1)NC(=O)C2=CC(=CC=C2)C(C)(C)C#N)NC3=CC4=C(C=C3)N=CN(C4=O)C [AZ628] + Cc1nc(Nc2ncc(C(=O)Nc3c(C)cccc3Cl)s2)cc(N2CCN(CCO)CC2)n1 [Dasatinib] (partner 0.075 µM)
# How it was run: as §1
# [4] = compound: C1CC2=C(C1)C=C(C=C2)OC3=NC(=C4C(=N3)N(C=N4)CC5=CC=C(C=C5)C6=CC=CC=C6)N[C@@H](CC7=CC=CC=C7)CO [QS11] + C[C@@H](Oc1cc(-c2cnn(C3CCNCC3)c2)cnc1N)c1c(Cl)ccc(F)c1Cl [Crizotinib] (partner 1 µM)
# How it was run: as §1
Cell Line,relative viability ([1]; first compound 0.08 µM),relative viability ([1]; first compound 0.8 µM),relative viability ([1]; first compound 2.53 µM),relative viability ([1]; first compound 8 µM),relative viability ([2]; first compound 0.08 µM),relative viability ([2]; first compound 0.253 µM),relative viability ([2]; first compound 0.8 µM),relative viability ([2]; first compound 2.53 µM),relative viability ([2]; first compound 8 µM),relative viability ([3]; first compound 0.08 µM),relative viability ([3]; first compound 0.253 µM),relative viability ([3]; first compound 0.8 µM),relative viability ([3]; first compound 2.53 µM),relative viability ([3]; first compound 8 µM),relative viability ([4]; first compound 0.08 µM),relative viability ([4]; first compound 0.253 µM),relative viability ([4]; first compound 2.53 µM),relative viability ([4]; first compound 8 µM),relative viability ([4]; first compound 0.8 µM)
HCC-15,1.25,1.06,0.863,1.28,0.541,0.519,0.445,0.44,0.5,0.642,0.496,0.389,0.404,0.23,0.807,0.927,0.803,0.779,–
HCC-44,1.04,0.861,0.801,1.04,0.208,0.206,0.25,0.158,0.157,–,–,–,–,–,0.868,0.729,0.688,0.519,0.577
HCC-78,0.464,0.59,0.482,0.55,0.788,0.722,0.725,0.871,0.798,0.514,0.338,0.417,0.394,0.367,0.326,0.342,0.325,0.331,0.289
HCC-366,1.71,1.11,0.768,1.94,0.607,0.613,–,0.589,0.504,0.663,0.653,0.492,0.55,0.406,0.565,0.542,0.292,0.324,–
HCC-827,1.12,1.02,1.08,1.15,0.447,0.416,0.366,0.478,0.547,0.364,0.295,0.296,0.25,0.18,0.917,0.914,0.854,0.787,0.643
HOP-62,1.31,0.784,1.12,0.671,0.677,0.743,0.657,0.497,0.669,0.501,0.608,0.477,0.478,0.317,0.853,0.863,0.703,0.45,0.846
IA-LM,0.893,1.08,1.32,1.01,–,–,–,–,–,–,–,–,–,–,0.697,0.94,0.693,0.712,0.675
LK-2,–,–,–,–,0.243,0.76,0.524,0.426,0.411,0.311,0.288,0.204,0.23,0.212,0.25,0.221,0.266,0.214,0.215
NCI-H358,–,–,–,–,0.297,0.378,0.412,0.5,0.507,0.184,0.124,0.136,0.161,0.1,0.723,0.525,0.402,0.379,0.457
NCI-H522,–,–,–,–,0.689,0.656,0.621,0.705,0.677,0.758,0.952,0.732,0.919,0.731,–,–,–,–,–
NCI-H1299,1.01,0.99,1.03,1.04,–,–,–,–,–,–,–,–,–,–,0.998,0.947,0.892,0.699,0.948
NCI-H1395,–,–,–,–,0.397,0.437,0.425,0.457,0.453,0.411,0.426,0.416,0.423,0.362,–,–,–,–,–
NCI-H1623,–,–,–,–,0.497,0.576,0.489,0.548,0.602,0.554,0.447,0.301,0.493,0.374,–,–,–,–,–
NCI-H1703,0.317,0.338,0.39,0.33,–,–,–,–,–,–,–,–,–,–,1.08,0.749,0.73,0.951,0.585
NCI-H1793,–,–,–,–,0.304,0.386,0.355,0.345,0.376,0.422,0.315,0.354,0.344,0.388,–,–,–,–,–
NCI-H1944,–,–,–,–,0.202,0.204,–,0.196,0.145,0.209,0.211,0.208,0.192,0.197,1.13,1.43,0.91,0.834,–
NCI-H2170,–,–,–,–,0.436,0.404,0.399,0.44,0.392,0.555,0.391,0.46,0.557,0.481,1.32,1.1,1.12,1.51,1.02
NCI-H2342,–,–,–,–,0.632,0.62,0.638,0.599,0.615,0.319,0.307,0.327,0.306,0.298,–,–,–,–,–
SK-MES-1,–,–,–,–,0.764,0.678,0.663,0.712,0.711,0.347,0.342,0.287,0.338,0.218,1.12,0.98,0.977,0.929,0.993
SW 900,–,–,–,–,0.54,0.578,0.709,0.417,0.402,1.1,0.466,0.59,0.528,0.547,–,–,–,–,–
